In patent publication US5594001A, “Polycyclic systems, and derivatives thereof, as neurotransmitter release enhancers useful in the treatment of cognitive disorders” (The DuPont Merck Pharmaceutical Company, priority 1994, dated 1997):
Structures can show the parent of a compound that is named as a salt.

How the values were obtained:
[1] = tested on: ACh level in the rat hippocampus; assay: Microdialysis, ACh levels in the rat hippocampus in vivo; parameters: species or system rat (male Wistar); settings: for AUC, Area % under the curve / Peak, maximal % increase of ACh release over baseline / time of Peak after administration / Duration, minutes of release above statistical significance: Table IV
Method: Male Wistar Rats are anaesthetized and guide cannulas stereotaxically implanted into the brain at the level of the dorsal hippocampus. Following a minimum recovery period of 72 h, dialysis probes (0.5 mm diameter, 4.0 mm long, from BAS) are inserted into the hippocampus through the guide cannulas. The probes are perfused at a rate of 2 μl/min with artificial cerebrospinal fluid containing 100 μM physostigmine sulfate (a cholinesterase inhibitor). Rats are allowed to acclimate for 2 hours prior to sample collection. Dialysate samples are collected every 20 min (40 μl) and immediately injected onto a high performance liquid chromatograph equipped for electrochemical detection (HPLC-EC) of acetylcholine (ACh). Following collection of 3 baseline samples, drugs or vehicle control are administered in 0.01 ml/g body weight and dialysate samples are collected for an additional 3 h. The ACh peak heights of the 3 samples prior to drug administration are averaged together to determine baseline ACh levels. ACh peak heights post drug administration are measured and used to determine percent change over baseline ACh levels. At the end of experiments, probe placement is verified histologically.
ACh is separated by reverse phase chromatography (Hamilton PRP-1 column 150×4.5 mm) and converted to acetate, betaine and hydrogen peroxide on an immobilized enzyme reactor column (BAS). Hydrogen peroxide is then detected electrochemically. Mobile phase for the chromatography consists of 0.2M Na2 HPO4, 0.1 mM EDTA, 0.5 mM SOS, 0.9 mM TMA.Cl, with pH adjusted to 8.0 with phosphoric acid and […] Kathon CG (ESA) added to each liter of mobile phase to retard bacterial growth.
FIGS. 1 and 2 show the effects of fluorine substitution to the pendant groups of the anthrone and azafluorene core series on the ability of compounds to increase the level of ACh in the rat hippocampus in vivo. All compounds were tested at 5 mg/kg except Ex. No 64 which was administered at 1 mg/kg. […] This was observed even though the compound was administered by a route (i.p.) which should lead to greater bioavailability than the oral route. Example 68 of the present invention, the bis-fluorinated analog of Example 611 or U.S. Pat. No. 5,173,489, on the other hand, led to a 2-fold increase in ACh levels which was maintained for over 1 hour (FIG. 1). The anthrone compound Ex. No. 440 of U.S. Pat. No. 5,173,489, at 5 mg/kg, led to a peak ACh level of 72% over baseline (FIG. 2). Ex. No. 64 of the present invention, which is the bis-fluoro analog of Ex. No. 440 of U.S. Pat. No. 5,173,489, at 1 mg/kg, led to a delayed increase in ACh levels reaching a peak of over 100% above baseline (FIG. 2). In contrast to the observed effects of Example 440 of U.S. Pat. No. 5,173,489, the increase in ACh level after administration of Example 64 of the present invention was maintained for the entire duration of testing (3 hours).

[2] = tested on: stimulus-induced acetylcholine release, slices from the parietal cortex; assay: Neurotransmitter (ACh) release assay, rat cortex slices, K+ stimulated; assay type: cell-based, rat (male Wistar); settings: for activation at 10 µM: Table II, % increase of drug-induced ACh release; for EC50: Table III
Method: The neurotransmitter release activities of the compounds of this invention were determined using standard biochemical assay procedures for example, the neurotransmitter release assay as described below.
Neurotransmitter release assay.
The neurotransmitter (Ach) release activities of the compounds of this invention were determined by the assay as described by Nickolson, et al., Drug Development Research, (1990) 19: 285-300, a modification of the procedure described by Mulder, et al., Brain Res., (1974) 70: 372.
Male Wistar rats (Charies River) weighing 175-200 grams were used. Rats were decapitated and brains were dissected immediately. Slices (0.3 mm thick) from the parietal cortex were prepared (approximately 100 mg wet weight) and were incubated in 10 ml KrebsRinger medium (KR) containing NaCl (116 mM), KCl (3 mM), CaCl2 (1.3 mM), MgCl2 (1.2 mM), KH2 PO4 (1.2 mM), Na2 SO4 (1.2 mM), NaHCO3 (25.0 mM), and glucose (11.0 mM), to which was added 10 uCi ^3 H-choline (specific activity approximately 35 Ci/mM; NEN) and […] unlabeled choline to give a final concentration of one micromole. The brain preparations were incubated for 30 min. at 37° C. under a steady flow of 95% O2 /5% CO2. Under these conditions, part of the radioactive choline taken up by the preparation was converted into radioactive acetylcholine (ACh) by the cholinergic nerve endings stored in synaptic vesicles, and released upon depolarization by high potassium ion (K+) containing media.
After labelling of the ACh stores, the slices were washed three times with non-radioactive KR medium and transferred to a superfusion apparatus to measure the drug effects on ACh release. The superfusion apparatus consisted of 10 thermostated glass columns of 5 mm diameter that were provided with GF/F glass fiber filters to support the slices (approximately 10 mg tissue/column). Superfusion was carried out in KR-medium (0.3 ml/min.) containing […] hemicholine-3 (HC-3). The HC-3 prevents the reuptake of choline formed during the superfusion from phospholipids and released ACh, which would be converted into unlabeled ACh and released in preference to the preformed labeled ACh. The medium was delivered by a 25-channel peristaltic pump (Ismatec by Brinkman) and warmed to 37° C. in a thermostated stainless steel coil before entering the superfusion column. Each column was provided with a 4-way slider valve (Beckmann instruments) which allowed rapid change of low to high K+/KR-medium, and with two 10-channel 3-way valves that were used to change from drug-free to drug-containing low and high K+/KR-medium. After 15 min. of washout of non-specifically bound radioactivity, collection of 4 min. fractions was initiated. After three 4 min. collections, the original medium was changed to a KR-medium in which the KCl concentration had been increased to 25 mM (high K+ medium) (S1). Depolarization-induced stimulation of release by high K+/KR-medium lasted for 4 min. Drug free low and high K+/KR-media were then substituted by drug- and vehicle-containing low- and high-K+/KR-medium, and superfusion was continued for three 4 min. collections with low K+/KR-medium, one 4 min. collection with high K+/KR-medium (s2), and two 4 min. collections with low K+/KR-medium.
Drug was added to the media by 100-fold dilutions of appropriate concentrations of the drug (in 0.9% saline) with either low- or high-K+/KR-medium. For comparative purposes, linopirdine was also run.
All superfusion fractions were collected in liquid scintillation counting vials. After superfusion, the slices were removed from the superfusion columns and extracted with 1.0 ml of 0.1N HCl. Liquiscint (NEN) counting fluid (12 ml) was added to superfusion fractions and extracts, and the samples were counted in a Packard Tricarb Liquid Scintillation Counter. No corrections were made for quenching. […]

[3] = 5 mg/kg, vehicle methocel, NSP = no significant points

O=C1c2ccccc2C(Cc2ccncc2)(Cc2ccncc2)c2ccccc21 [Ex 440 U.S. Pat. No. 5,173,489, reference compound] was tested, and the “peak ACh level over baseline” value ([1]; 5 mg/kg oral, FIG. 2) was 72%, the “AUC, Area % under the curve” value ([1]; 5 mg/kg, vehicle water) was 44 ± 34% and the “Peak, maximal % increase of ACh release over baseline” value (from here on “Peak, maximal % increase”) ([1]; 5 mg/kg, vehicle water) was 18 ± 15%. The “time of Peak after administration” value ([1]; 5 mg/kg, vehicle water) was 20 min, the “Duration, minutes of release above statistical significance” value ([1]; 5 mg/kg, vehicle water, NSP = no significant points) was “NSP” and the “AUC, Area % under the curve” value ([1]; 10 mg/kg, vehicle water) was 705 ± 112%. For the same compound, the “Duration, minutes of release above statistical significance” value ([1]; 10 mg/kg, vehicle water) was 100 min, the “Peak, maximal % increase” value ([1]; 10 mg/kg, vehicle water) was 127 ± 31% and the “time of Peak after administration” value ([1]; 10 mg/kg, vehicle water) was 60 min.
c1ccc2c(c1)-c1ncccc1C2(Cc1ccncc1)Cc1ccncc1 [Ex. No 611 of U.S. Pat. No. 5,173,489, reference compound] was tested, and the “effect on ACh levels over what was observed after vehicle administration” value ([1]; 5 mg/kg i.p., FIG. 1) was “no effect on ACh levels”.
Compound c1ccc2c(c1)-c1sccc1C2Cc1ccncc1 (centres unmarked) [Example 1, 4-(4-Pyridinylmethyl)-4H-indeno[1,2-B]thiophene] has an activation at 10 µM [2] of 92%.
N#Cc1cccc(CC2(Cc3ccncc3)c3ccccc3-c3sccc32)c1 (centres unmarked) [Example 2, 3-[4-(4-Pyridinylmethyl)-4H-indeno[1,2-B]thiophen-4-ylmethyl-benzonitrile Hydrobromide Hydrate] showed an activation at 10 µM [2] of 220%.
N#CCCCCC1(Cc2ccncc2)c2ccccc2-c2sccc21 (centres unmarked) [Example 3, 4-(4-Pyridinylmethyl)-4H-indeno[1,2-B]thiophene-4-pentanenitrile Hydrobromide Hydrate] showed an activation at 10 µM [2] of 145%.
CCOC(=O)CC1(Cc2ccncc2)c2ccccc2-c2sccc21 (centres unmarked) [Example 4, 4-(4-Pyridinylmethyl)-4H-indeno[1,2-B]thiophene-4-acetic acid, Ethyl Ester Hydrochloride] was tested, and the activation at 10 µM [2] was 146%.
Compound CC(=O)OCCCCC1(Cc2ccncc2)c2ccccc2-c2sccc21 (centres unmarked) [Example 5, 4-(4-Pyridinylmethyl)-4H-indeno[1,2-B]thiophene-4-butanol Acetate (Ester) Hydrochloride] has an activation at 10 µM [2] of 224%.
NC(=O)CCCCC1(Cc2ccncc2)c2ccccc2-c2sccc21 (centres unmarked) [Example 6, 4-(4-Pyridinylmethyl)-4H-indeno[1,2-B]thiophene-4-pentanamide Hydrochloride Hydrate] gave an activation at 10 µM [2] of 163%.
c1ccc(CC2(Cc3ccncc3)c3ccccc3-c3sccc32)cc1 (centres unmarked) [Example 8] gave an activation at 10 µM [2] of 130%.
Work on c1cnc2c(c1)C(Cc1ccncc1)c1ccsc1-2 (centres unmarked) [Example 10, 4-(4-Pyridinylmethyl)-4H-thieno[2',3':3,4]cyclopenta[1,2-B]pyridine] yielded an activation at 10 µM [2] of 118%.
Fc1cc(CC2(Cc3ccncc3)c3cccnc3-c3sccc32)ccn1 (centres unmarked) [Example 11, 4-[(2-Fluoro-4-pyridinyl)methyl]-4-(4-pyridinylmethyl)-4H-thieno[3',2':4,5]cyclopenta[1,2-B]pyridine] gave an activation at 10 µM [2] of 757%.
For c1ccc(-n2cc3c(n2)-n2cccc2C3(Cc2ccncc2)Cc2ccncc2)cc1 [Example 15, 2,4-Dihydro-2-phenyl-4,4-bis(4-pyridinylmethyl)pyrazolo[4,3-B]pyrrolizine], the activation at 10 µM [2] was 348%.
Oc1ccc2c(c1)C(Cc1ccnc(F)c1)(Cc1ccnc(F)c1)c1ccccc1-2 [Example 61, 9,9-Bis((2-fluoro-4-pyridinyl)methyl)-2-hydroxy-9H-fluorene] was tested, and the “AUC, Area % under the curve” value ([1]; 5 mg/kg, vehicle methocel) was 95 ± 61%, the “Peak, maximal % increase” value ([1]; 5 mg/kg, vehicle methocel) was 48 ± 22% and the “time of Peak after administration” value ([1]; 5 mg/kg, vehicle methocel) was 20 min. The “Duration, minutes of release above statistical significance” value [1, 3] was 40 min.
Compound O=C1c2ccccc2C(Cc2ccncc2)(Cc2ccnc(F)c2)c2ccccc21 [Example 66] has an EC50 [2] of 310 nM.
Compound Fc1cc(CC2(Cc3ccncc3)c3ccccc3Oc3ncccc32)ccn1 (centres unmarked) [Example 70, 9-((2-Fluoro-4-pyridinyl)methyl)-9-(4-pyridinylmethyl)-4-azaxanthene] has an EC50 [2] of 350 nM.
COc1ccc2c(c1)C(=O)c1ccc(OC)cc1C2(Cc1ccnc(F)c1)Cc1ccnc(F)c1 [Example 74, 10,10-Bis((2-fluoro-4-pyridinyl)methyl)-2,6-dimethoxy-9(10H)-anthracenone] showed an EC50 [2] of 880 nM.
Compound COc1ccc2c(c1)C(Cc1ccnc(F)c1)(Cc1ccnc(F)c1)c1ccccc1C2=O [Example 77, 10,10-Bis((2-fluoro-4-pyridinyl)methyl)-3-methoxy-9(10H)-anthracenone] has an EC50 [2] of 660 nM.
In the case of C#Cc1ccc2c(c1)C(Cc1ccnc(F)c1)(Cc1ccnc(F)c1)c1cccnc1-2 [Example 79, 5,5-Bis((2-fluoro-4-pyridinyl)methyl)-7-(ethynyl)-5H-indeno-[1,2-b]pyridine], the EC50 [2] is reported as 2650 nM.
O=S1(=O)c2ccccc2C(Cc2ccnc(F)c2)(Cc2ccnc(F)c2)c2ccccc21 [Example 107, 5,5-Bis-(2-fluoropyridin-4-ylmethyl)thioxanthene-10,10-dioxide] was tested, and the “AUC, Area % under the curve” value ([1]; 5 mg/kg, vehicle methocel) was 281 ± 226%, the “Peak, maximal % increase” value ([1]; 5 mg/kg, vehicle methocel) was 41 ± 10% and the “time of Peak after administration” value ([1]; 5 mg/kg, vehicle methocel) was 20 min. For the same compound, the “Duration, minutes of release above statistical significance” value [1, 3] was “NSP”.
In the case of [O-][S+]1c2ccccc2C(Cc2ccnc(F)c2)(Cc2ccnc(F)c2)c2ccccc21 [Example 108, 5,5-Bis(2-fluoropyridin-4-ylmethyl)thioxanthene-10-oxide], the “AUC, Area % under the curve” value ([1]; 1 mg/kg, vehicle methocel) is reported as 184 ± 124%, the “Peak, maximal % increase” value ([1]; 1 mg/kg, vehicle methocel) is reported as 34 ± 19% and the “time of Peak after administration” value ([1]; 1 mg/kg, vehicle methocel) is reported as 100 min. The “Duration, minutes of release above statistical significance” value ([1]; 1 mg/kg, vehicle methocel, NSP = no significant points) was “NSP”, the “AUC, Area % under the curve” value ([1]; 5 mg/kg, vehicle methocel) was 799 ± 202% and the “Peak, maximal % increase” value ([1]; 5 mg/kg, vehicle methocel) was 108 ± 80%. The “time of Peak after administration” value ([1]; 5 mg/kg, vehicle methocel) was 80 min and the “Duration, minutes of release above statistical significance” value [1, 3] was “>”.
